In one assay the test system is Cavia porcellus. In words: Intravenous effective dose against antigen induced bronchoconstriction in guinea pig. The class given is functional.
For another assay, the species on record is Homo sapiens. In words: Inhibition of LTB4 biosynthesis at 1 uM, in calcium ionophore-stimulated human whole blood leukocyte (HBL) assay. The class given is functional.
Assay [1] addresses T1, Polyunsaturated fatty acid 5-lipoxygenase (Rattus norvegicus) (UniProt P12527).
T1 sequence (whole entry): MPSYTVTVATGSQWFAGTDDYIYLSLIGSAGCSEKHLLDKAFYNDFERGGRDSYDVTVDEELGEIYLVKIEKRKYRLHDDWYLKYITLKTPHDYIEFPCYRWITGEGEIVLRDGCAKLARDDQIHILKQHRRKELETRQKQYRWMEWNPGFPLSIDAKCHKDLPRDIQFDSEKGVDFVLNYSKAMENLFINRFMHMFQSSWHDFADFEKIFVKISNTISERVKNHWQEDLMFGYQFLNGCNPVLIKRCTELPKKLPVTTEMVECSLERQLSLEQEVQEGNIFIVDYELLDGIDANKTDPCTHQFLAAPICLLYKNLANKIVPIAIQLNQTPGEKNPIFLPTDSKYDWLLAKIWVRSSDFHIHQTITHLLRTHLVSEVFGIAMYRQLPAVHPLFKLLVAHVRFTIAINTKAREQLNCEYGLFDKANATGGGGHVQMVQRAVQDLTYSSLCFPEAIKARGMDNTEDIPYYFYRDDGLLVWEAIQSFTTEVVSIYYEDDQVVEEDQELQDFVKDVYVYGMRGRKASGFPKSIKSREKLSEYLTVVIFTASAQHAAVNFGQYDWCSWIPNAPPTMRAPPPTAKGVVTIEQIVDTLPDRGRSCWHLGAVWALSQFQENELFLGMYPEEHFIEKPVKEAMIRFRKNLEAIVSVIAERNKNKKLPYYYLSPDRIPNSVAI
Description: Activity against LTB4 biosynthesis in the rat RPAR pleurisy model po (10 mg/kg). The class given is functional, organism-based.

For assay [2], the system named is Rattus norvegicus. Description: Ex vivo inhibitory activity at an peroral dose of 1 mg/Kg against LTB4 biosynthesis in rat blood, after pretreatment period of 6 hr. The class given is functional. The conditions noted are these: po.
The target in assay [3] is T1, Polyunsaturated fatty acid 5-lipoxygenase (Rattus norvegicus). Description: Ex vivo inhibitory activity at an peroral dose of 10 mg/Kg against LTB4 biosynthesis in rat blood, after pretreatment period of 3h. The class given is functional.
The species entered for assay [4] is Rattus norvegicus. In words: Oral effective dose against LTB4 biosynthesis in the rat RPAR pleurisy model. The class given is functional.

The values below come from ChEMBL document CHEMBL1129782, “Azole phenoxy hydroxyureas as selective and orally active inhibitors of 5-lipoxygenase” (J Med Chem, 1996).

The ED50 is the midpoint of the dose-response relation. A low value points to an effect at a small dose. The inhibition is the relative decrease from the control value, in per cent. As a reminder, the inhibition in vivo is the drop in the measured response relative to a control, in per cent.

In the assay with Cavia porcellus, `Cc1oc(-c2ccc(F)cc2)nc1COc1cccc(CN(O)C(N)=O)c1` had an ED50 of 5 mg/kg. In the assay filed under Homo sapiens, the inhibition at 1 µM came out at 74%. This compound also came in with an inhibition in assay [1] of 37%.

For the compound `Cc1oc(-c2ccc(C(F)(F)F)cc2)nc1CCOc1ccc(CN(O)C(N)=O)cc1`, the inhibition in vivo at 1 mg/kg with Rattus norvegicus [2] was found to be 57%. In assay [3], the inhibition came out at 67%. It took a dose of 5 mg/kg to reach the 50% effect level in the assay listed under Rattus norvegicus [4] (ED50).
